Results taken from patent US4351337A, “Biodegradable, implantable drug delivery device, and process for preparing and using the same” (Arthur D. Little, Inc., priority 1980, dated 1982).
Entries after “also recorded” stand apart in the source; their conditions may differ.

Legend:
[1] = Naltrexone saturation in Earle's solution; type: physicochemical; settings: Earle's Balanced Salt Solution, 37° C.; read-out: saturation concentration
Procedure: The resulting implants were evaluated by both in vitro and in vivo techniques. In making the in vitro evaluations the films were measured for weight, thickness, and surface area, and were then rinsed briefly with Earle's Balanced Salt Solution (IX--without phenol red, Grand Island Biological Company). Individual films were placed in stoppered test tubes containing 10 ml of the Earle's solution. The tubes were placed in a shaker water bath at 37° C. and were gently agitated. Drug concentration of the solution was periodically assayed by scintillation counting techniques to permit an evaluation of the in vitro drug-release behavior of the copolymers. (The solutions were replaced sufficiently frequently that the naltrexone concentration remained far below saturation, i.e., below ~460 mg/100 ml).

[2] = Tritium excretion in urine of rats given labelled prednisolone; type: in vivo, rat (female CD); settings: for Tritium in urine of rats: group 3, control, s.c. injection 1.0 mg/rat
Procedure: These implants contained from 0.65 to 2.0 mg of radioactively-labelled prednisolone, depending on the size of the implant rectangle. The implants were sterilized by immersion in alcohol and then rinsed with sterile Earle's Balanced Salt Solution. The devices were implanted subcutaneously into the backs of two groups each of eight female CD rats (Charles River Breeding Laboratories, Inc.). To accomplish the implantations, the dorsal area was shaved, cleaned with alcohol and then a one-half inch incision was made in the skin. The skin was then separated from the muscle tissue and the implant inserted at this site. The incision was then sutured.
Each animal of a third group of four female CD rats from the same source was subcutaneously injected with 0.5 cc of an 0.5% hydroxy propylcellulose solution containing an amount of the same radioactiviely labelled prednisolone approximately equivalent to that contained in the implant devices (i.e., 1 mg prednisolone/rat).
All of the animals were housed in metabolic cages. The radioactivities in the urines collected were measured by the standard procedure of scintillation counting, and from these measurements values of disintegrations per minute (DPM) were calculated. Radioactivities were thus measured every 24 hours for the first four days and then for an additional 72 hour level to complete a week of testing.
The average DPM values obtained for the two groups of implanted rats (average dosage of 1.5 mg/rat) and the one group of control rats (average dosage of 1.0 mg/rat) are given in Table 1. During the first day a number of rats escaped from their cages so that the average figures given are for fewer than the total number of animals in each group.

O=C1CC[C@@]2(O)[C@H]3Cc4ccc(O)c5c4[C@@]2(CCN3CC2CC2)[C@H]1O5 [naltrexone]
solubility [1]: ~4600 µg/mL

C[C@]12C=CC(=O)C=C1CC[C@@H]1[C@@H]2[C@@H](O)C[C@@]2(C)[C@H]1CC[C@]2(O)C(=O)CO [prednisolone]
Tritium in urine of rats ([2]; 0-24 h): 33,038 DPM
Tritium in urine of rats ([2]; 24-48 h): 4,424 DPM
Tritium in urine of rats ([2]; 48-72 h): 3,335 DPM
Tritium in urine of rats ([2]; 72-96 h): 86 DPM
Tritium in urine of rats ([2]; 96-168 h, minus values indicate noise): -248 DPM
excretion / drug release in words ([2]; implants to one week, control first 24 h and end of fourth day): very high excretion rates in the first 24 hours; also recorded: practically no excretion of radioactive material
